Measurements from patent US9227971B2, “Pyrazolo[1,5-a]pyrimidine compounds as mTOR inhibitors” (Merck Sharp & Dohme Corp., priority 2010, dated 2016).
Like-named read-outs stand apart in the source and are kept apart here.

Experiments:
[1] = system: phosphorylated AKT Ser473 (pAKT S473), mTORC2 activity, PC3 cells; experiment: mTOR target engagement assay, immunofluorescent cell-based, pAKT S473 readout (mTORC2 activity)
Method in brief: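 After blocking, cells were stained overnight at 4 °C with anti-pAKT S473 antibody, then a fluorescent secondary; inhibition was read as reduced fluorescence intensity.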

[2] = system: phosphorylated 4E-BP1 Thr37/46 (p4E-BP1 Thr37/46), mTORC1 activity, PC3 cells; experiment: mTOR target engagement assay, immunofluorescent cell-based, p4E-BP1 Thr37/46 readout (mTORC1 activity); settings: read-out: p4E-BP1 Thr37/46 IC50
Method in brief: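 Cell-based immunofluorescence in PC3 cells: serially diluted compounds (0.25% DMSO, 5% FBS) applied for ninety minutes at 37° C before fixation and overnight 4° C staining of p4E-BP1 Thr37/46. Untreated DMSO wells set maximal phosphorylation; IC50 obtained by logistic fitting.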

[3] = Homo sapiens, PC-3, Table 3-1, PC3 cells
[4] = Homo sapiens, PC-3, PC3 cells, compound treatment ninety minutes at 37° C.
[5] = Homo sapiens, PC-3, Table 6-1, PC3 cells
[6] = PC3 cells, compound treatment ninety minutes at 37° C.
[7] = Homo sapiens, PC-3, Table 7-8, PC3 cells

In the case of CS(=O)(=O)c1c(C2CC3COCC(C2)N3C(=O)c2nc[nH]n2)nc2c(-c3ccc(-c4ccccc4)nc3)cnn2c1N (single isomer, unassigned) [Compound 8.30, (7-(7-amino-6-(methylsulfonyl)-3-(6-phenylpyridin-3-yl)pyrazolo[1,5-a]pyrimidin-5-yl)-3-oxa-9-azabicyclo[3.3.1]nonan-9-yl)(1H-1,2,4-triazol-3-yl)methanone], the IC50 ([1]; PC3 cells) is reported as 1 to 100 nM and the IC50 ([2]; PC3 cells) is reported as 1 to 100 nM.
CS(=O)(=O)c1c([C@@H]2C[C@H]3CC[C@@H](C2)N3C(=O)CO)nc2c(-c3cnn(-c4ccccn4)c3)cnn2c1N [Compound 3.124, 1-((1R,3s,5S)-3-(7-amino-6-(methylsulfonyl)-3-(1-(pyridin-2-yl)-1H-pyrazol-4-yl)pyrazolo[1,5-a]pyrimidin-5-yl)-8-azabicyclo[3.2.1]octan-8-yl)-2-hydroxyethanone] gave an IC50 [1, 3] of 100 to 1000 nM and an IC50 [2, 3] of 1000 to 10000 nM.
COc1ccc(-c2ccc(-c3cnn4c(N)c(S(C)(=O)=O)c([C@@H]5C[C@H]6CC[C@@H](C5)N6C(=O)c5nnc[nH]5)nc34)cn2)cc1 [Compound 3.33, ((1R,3s,5S)-3-(7-amino-3-(6-(4-methoxyphenyl)pyridin-3-yl)-6-(methylsulfonyl)pyrazolo[1,5-a]pyrimidin-5-yl)-8-azabicyclo[3.2.1]octan-8-yl)(4H-1,2,4-triazol-3-yl)methanone] gave an IC50 [1, 3] of 1 to 100 nM and an IC50 [2, 3] of 1 to 100 nM.
Nc1c(C2CC2)c([C@@]2(O)C[C@H]3CC[C@@H](C2)N3C(=O)c2nnc[nH]2)nc2c(-c3ccc(-c4ccccc4)nc3)cnn12 [Compound 8.25, ((1R,3s,5S)-3-(7-amino-6-cyclopropyl-3-(6-phenylpyridin-3-yl)pyrazolo[1,5-a]pyrimidin-5-yl)-3-hydroxy-8-azabicyclo[3.2.1]octan-8-yl)(4H-1,2,4-triazol-3-yl)methanone] showed an IC50 ([1]; Homo sapiens, PC-3, PC3 cells) of 100 to 1000 nM and an IC50 ([2]; Homo sapiens, PC-3, PC3 cells) of 1000 to 10000 nM.
Work on COc1ccc(-c2ccc(-c3cnn4c(N)c(C5CC5)c([C@@H]5C[C@H]6CC[C@@H](C5)N6C(=O)c5nnc(N)[nH]5)nc34)cn2)cc1F [Compound 4.27, (5-amino-4H-1,2,4-triazol-3-yl)((1R,3a,5S)-3-(7-amino-6-cyclopropyl-3-(6-(3-fluoro-4-methoxyphenyl)pyridin-3-yl)pyrazolo[1,5-a]pyrimidin-5-yl)-8-azabicyclo[3.2.1]octan-8-yl)methanone] yielded an IC50 [1, 4] of 1 to 100 nM and an IC50 [2, 4] of 1 to 100 nM.
With Nc1nnc(C(=O)N2C3CCC2CC(c2nc4c(-c5ccc(-c6ccccc6)nc5)cnn4c(N)c2C2CC2)C3)[nH]1 [Compound 8.104, (5-amino-4H-1,2,4-triazol-3-yl)((1R,3s,5S)-3-(7-amino-6-cyclopropyl-3-(6-phenylpyridin-3-yl)pyrazolo[1,5-a]pyrimidin-5-yl)-8-azabicyclo[3.2.1]octan-8-yl)methanone] the IC50 ([1]; Homo sapiens, PC-3, PC3 cells) was 1 to 100 nM and the IC50 ([2]; Homo sapiens, PC-3, PC3 cells) was 1 to 100 nM.
Compound CC(=O)c1c([C@@H]2C[C@H]3CC[C@@H](C2)N3C(N)=O)nc2c(-c3ccc(-c4ccc(F)cc4)nc3)cnn2c1N [Compound 1.11..170, (1R,3s,5S)-3-(6-acetyl-7-amino-3-(6-(4-fluorophenyl)pyridin-3-yl)pyrazolo[1,5-a]pyrimidin-5-yl)-8-azabicyclo[3.2.1]octane-8-carboxamide] has an IC50 [1, 4] of 1 to 100 nM and an IC50 [2, 4] of 1 to 100 nM.
With COc1ccc(-c2ccc(-c3cnn4c(N)c(C(C)=O)c([C@@H]5C[C@H]6CC[C@@H](C5)N6C(=O)CO)nc34)cn2)cc1F [Compound 1.1.58, 1-((1R,3s,5S)-3-(6-acetyl-7-amino-3-(6-(3-fluoro-4-methoxyphenyl)pyridin-3-yl)pyrazolo[1,5-a]pyrimidin-5-yl)-8-azabicyclo[3.2.1]octan-8-yl)-2-hydroxyethanone] the IC50 [1, 4] was 100 to 1000 nM and the IC50 [2, 4] was 100 to 1000 nM.
COC(=O)N1[C@@H]2CC[C@H]1C[C@H](c1nc3c(-c4ccc(-c5ncc[nH]5)nc4)cnn3c(N)c1C(C)=O)C2 [Compound 6.25, (1R,3s,5S)-methyl 3-(3-(6-(1H-imidazol-2-yl)pyridin-3-yl)-6-acetyl-7-aminopyrazolo[1,5-a]pyrimidin-5-yl)-8-azabicyclo[3.2.1]octane-8-carboxylate] gave an IC50 [1, 5] of 1 to 100 nM and an IC50 [2, 5] of 1 to 100 nM.
Cc1ccc(-c2cnn3c(N)c(S(C)(=O)=O)c([C@@H]4C[C@H]5CC[C@@H](C4)N5C(=O)c4nnc[nH]4)nc23)cn1 [Compound 3.68, ((1R,3s,5S)-3-(7-amino-3-(6-methylpyridin-3-yl)-6-(methylsulfonyl)pyrazolo[1,5-a]pyrimidin-5-yl)-8-azabicyclo[3.2.1]octan-8-yl)(4H-1,2,4-triazol-3-yl)methanone] gave an IC50 ([1]; Table 3-1, PC3 cells) of 100 to 1000 nM and an IC50 ([2]; Table 3-1, PC3 cells) of 100 to 1000 nM.
COc1ccc(-c2ccc(-c3cnn4c(N)c(S(C)(=O)=O)c([C@@H]5C[C@H]6CC[C@@H](C5)N6C(=O)CO)nc34)cn2)cc1 [Compound 3.36, 1-((1R,3s,5S)-3-(7-amino-3-(6-(4-methoxphenyl)pyridin-3-yl)-6-(methylsulfonyl)pyrazolo[1,5-a]pyrimidin-5-yl)-8-azabicyclo[3.2.1]octan-8-yl)-2-hydroxyethanone] gave an IC50 [1, 3] of 1 to 100 nM and an IC50 [2, 3] of 1 to 100 nM.
Work on COc1ccc(-c2ccc(-c3cnn4c(N)c(C(C)=O)c([C@@H]5C[C@H]6CC[C@@H](C5)N6C(=O)c5nnc[nH]5)nc34)cn2)cc1 [Compound 1.1.46, 1-(5-((1R,3s,5S)-8-(4H-1,2,4-triazole-3-carbonyl)-8-azabicyclo[3.2.1]octan-3-yl)-7-amino-3-(6-(4-methoxyphenyl)pyridin-3-yl)pyrazolo[1,5-a]pyrimidin-6-yl)ethanone] yielded an IC50 [1, 4] of 1 to 100 nM and an IC50 [2, 4] of 1 to 100 nM.
With CC(=O)c1c([C@@H]2C[C@H]3CC[C@@H](C2)N3C(=O)CO)nc2c(-c3ccc(-c4cc[nH]n4)nc3)cnn2c1N [Compound 1.1.75, 1-((1R,3s,5S)-3-(3-(6-(1H-pyrazol-3-yl)pyridin-3-yl)-6-acetyl-7-aminopyrazolo[1,5-a]pyrimidin-5-yl)-8-azabicyclo[3.2.1]octan-8-yl)-2-hydroxyethanone] the IC50 [1, 4] was 1 to 100 nM and the IC50 [2, 4] was 1 to 100 nM.
For CS(=O)(=O)c1c([C@@H]2C[C@H]3CC[C@@H](C2)N3C(=O)[C@H]2COC(=O)N2)nc2c(-c3ccc(-c4ccccc4)nc3)cnn2c1N [Compound 3.142, (R)-4-((1R,3S,5S)-3-(7-amino-6-(methylsulfonyl)-3-(6-phenylpyridin-3-yl)pyrazolo[1,5-a]pyrimidin-5-yl)-8-azabicyclo[3.2.1]octane-8-carbonyl)oxazolidin-2-one], the IC50 [1, 3] was 100 to 1000 nM and the IC50 [2, 3] was 100 to 1000 nM.
For Nc1cc([C@@H]2C[C@H]3CC[C@@H](C2)N3C(=O)[C@@H]2CCCN2)nc2c(-c3ccc(-c4ccccc4)nc3)cnn12 [Compound 2.20], the IC50 [1, 4] was 1000 to 10000 nM and the IC50 [2, 4] was 1000 to 10000 nM.
With COCCOc1ccc(-c2ccc(-c3cnn4c(N)c(C5CC5)c([C@@H]5C[C@H]6CC[C@@H](C5)N6C(=O)c5nnc[nH]5)nc34)cn2)cc1 [Compound 4.14, ((1R,3s,5S)-3-(7-amino-6-cyclopropyl-3-(6-(4-(2-methoxyethoxy)phenyl)pyridin-3-yl)pyrazolo[1,5-a]pyrimidin-5-yl)-8-azabicyclo[3.2.1]octan-8-yl)(4H-1,2,4-triazol-3-yl)methanone] the IC50 [1, 4] was 100 to 1000 nM and the IC50 [2, 4] was 100 to 1000 nM.
CC(=O)c1c([C@@H]2C[C@H]3CC[C@@H](C2)N3C(=O)c2ncn[nH]2)nc2c(-c3ccc(C(C)(C)O)nc3)cnn2c1N [Compound 7.5, 1-(5-((1R,3s,5S)-8-(1H-1,2,4-triazole-5-carbonyl)-8-azabicyclo[3.2.1]octan-3-yl)-7-amino-3-(6-(2-hydroxypropan-2-yl)pyridin-3-yl)pyrazolo[1,5-a]pyrimidin-6-yl)ethanone] was tested, and the IC50 [1, 4] was 1 to 100 nM and the IC50 [2, 4] was 1 to 100 nM.
For CC(=O)c1c([C@@H]2C[C@H]3CC[C@@H](C2)N3C(=O)c2nnc[nH]2)nc2c(-c3ccc4ccc(F)cc4c3)cnn2c1N [Compound 1.1.38, 1-(5-((1R,3s,5S)-8-(4H-1,2,4-triazole-3-carbonyl)-8-azabicyclo[3.2.1]octan-3-yl)-7-amino-3-(7-fluoronaphthalen-2-yl)pyrazolo[1,5-a]pyrimidin-6-yl)ethanone], the IC50 [1, 6] was 100 to 1000 nM and the IC50 [2, 6] was 1 to 100 nM.
In the case of CCNC(=O)N1[C@@H]2CC[C@H]1C[C@H](c1nc3c(-c4ccc(-c5ccccc5F)nc4)cnn3c(N)c1S(C)(=O)=O)C2 [Compound 3.130, (1R,3s,5S)-3-(7-amino-3-(6-(2-fluorophenyl)pyridin-3-yl)-6-(methylsulfonyl)pyrazolo[1,5-a]pyrimidin-5-yl)-N-ethyl-8-azabicyclo[3.2.1]octane-8-carboxamide], the IC50 [1, 3] is reported as 100 to 1000 nM and the IC50 [2, 3] is reported as 100 to 1000 nM.
CS(=O)(=O)c1c([C@@H]2C[C@H]3CC[C@@H](C2)N3C(=O)CO)nc2c(-c3ccc(C4(O)COC4)nc3)cnn2c1N [Compound 7.49, 1-((1R,3s,5S)-3-(7-amino-3-(6-(3-hydroxyoxetan-3-yl)pyridin-3-yl)-6-(methylsulfonyl)pyrazolo [1,5-a]pyrimidin-5-yl)-8-azabicyclo[3.2.1]octan-8-yl)-2-hydroxyethanone] was tested, and the IC50 [1, 7] was 1000 to 10000 nM and the IC50 [2, 7] was 1000 to 10000 nM.
